Results published in patent US20170114021A1, “HALOGEN-SUBSTITUTED COMPOUNDS” (priority 2014, published 2017).
Read-outs that look alike come from different tables or passages of the source.

Tests used:
[1] = log P by HPLC on reversed-phase column (C18), EEC Directive 79/831 Annex V.A8; type: physicochemical
Procedure: ^a) Unless indicated otherwise, the following method was used to determine the log P values and masses: The determination of the given log P values was carried out in accordance with EEC Directive 79/831 Annex V.A8 by HPLC (High Performance Liquid Chromatography) on a reversed-phase column (C18). Agilent 1100 LC system; 50*4.6 Zorbax Eclipse Plus C18 1.8 micron; mobile phase A: acetonitrile (0.1% formic acid); mobile phase B: water (0.09% formic acid); linear gradient from 10% acetonitrile to 95% acetonitrile in 4.25 min, then 95% acetonitrile for a further 1.25 min; oven temperature 55° C.; flow rate: 2.0 ml/min. Mass detection is effected by means of an Agilend MSD system.

[2] = test system: Phaedon cochleariae; test: Phaedon cochleariae spray test (PHAECO); type: in vivo; settings: Chinese cabbage leaf discs, after 7 days
Procedure: Phaedon cochleariae—Spray Test (PHAECO) Solvent: 78.0 parts by weight of acetone • • 1.5 parts by weight of dimethylformamide Emulsifier: alkylaryl polyglycol ether
(§1) To produce a suitable preparation of active compound, 1 part by weight of active compound is dissolved using the specified parts by weight of solvent and made up with water containing an emulsifier concentration of 1000 ppm until the desired concentration is attained. To produce further test concentrations, the preparation is diluted with emulsifier-containing water.
After 7 days, efficacy in % is determined. 100% means that all the beetle larvae have been killed; 0% means that no beetle larvae have been killed.

[3] = test system: Spodoptera frugiperda; test: Spodoptera frugiperda spray test (SPODFR); type: in vivo; settings: application rate 100 g/ha; maize leaf discs; after 7 days
Procedure: Spodoptera frugiperda—Spray Test (SPODFR)
Solvent: 78.0 parts by weight of acetone • • 1.5 parts by weight of dimethylformamide Emulsifier: alkylaryl polyglycol ether
as §1
Leaf discs of maize (Zea mays) are sprayed with an active compound preparation of the desired concentration and, after drying, populated with caterpillars of the armyworm (Spodoptera frugiperda).
After 7 days, efficacy in % is determined. 100% means that all the caterpillars have been killed; 0% means that no caterpillars have been killed.

[4] = test system: Tetranychus urticae; test: Tetranychus urticae spray test, OP-resistant (TETRUR); type: in vivo; settings: application rate 100 g/ha; bean leaf discs; after 6 days
Procedure: Tetranychus urticae—Spray Test, OP-Resistant (TETRUR) Solvent: 78.0 parts by weight of acetone • • 1.5 parts by weight of dimethylformamide Emulsifier: alkylaryl polyglycol ether
as §1
Discs of bean leaves (Phaseolus vulgaris) infested by all stages of the greenhouse red spider mite (Tetranychus urticae) are sprayed with an active ingredient formulation of the desired concentration.
After 6 days, efficacy in % is determined. 100% means that all the spider mites have been killed; 0% means that no spider mites have been killed.

[5] = reversed-phase C18 HPLC column, HPLC, C18, acetonitrile/water with formic acid gradient, read-out: log P

SMILES | chromatographic logP [1, 5] | other results
CC(=O)c1c(C(F)(F)F)c(C(F)(F)C(F)(F)F)nn1C [1-[1-methyl-3-(pentafluoroethyl)-4-(trifluoromethyl)-1H-pyrazol-5-yl]ethanone] | 3.61 | 
Cn1cc(C(F)(F)F)c(C(F)(F)C(F)(F)F)n1 [1-methyl-3-(1,1,2,2,2-pentafluoroethyl)-4-(trifluoromethyl)pyrazole] |  | chromatographic logP [1]: 3.23
Cn1nc(C(F)(F)C(F)(F)F)c(C(F)(F)F)c1B1OC(C)(C)C(C)(C)O1 [1-methyl-3-(1,1,2,2,2-pentafluoroethyl)-5-(4,4,5,5-tetramethyl-1,3,2-dioxaborolan-2-yl)-4-(trifluoromethyl)pyrazole] | 5.05 | 
O=C(NC1CC1)c1cc(I)ccc1Cl [2-chloro-N-cyclopropyl-5-iodobenzamide] | 2.13 | 
Cn1nc(C(F)(F)C(F)(F)F)c(C(F)(F)F)c1-c1cc[nH]n1 [2′-methyl-5′-(pentafluoroethyl)-4′-(trifluoromethyl)-1H,2′H-3,3′-bipyrazole] | 3.03 | 
Cn1nc(C(F)(F)C(F)(F)F)c(C(F)(F)F)c1-c1c[nH]nn1 [4-[1-methyl-3-(pentafluoroethyl)-4-(trifluoromethyl)-1H-pyrazol-5-yl]-1H-1,2,3-triazole] | 2.78 | 

Continued, in another order:

chromatographic logP [1, 5] | SMILES | other results
2.36 | O=C(NC1CC1)c1cc(-n2cc(Br)cn2)ccc1Cl [5-(4-bromopyrazol-1-yl)-2-chloro-N-cyclopropylbenzamide] | 
2.11 | Cn1nc(C(F)(F)C(F)(F)F)c(C(F)(F)F)c1-c1nn[nH]n1 [5-[1-methyl-3-(pentafluoroethyl)-4-(trifluoromethyl)-1H-pyrazol-5-yl]-2H-tetrazole] | 
1.8 | [N-]=[N+]=Nc1ccc(Cl)c(C(=O)NC2CC2)c1 [5-azido-2-chloro-N-cyclopropylbenzamide] | 
3.74 | C#Cc1c(C(F)(F)F)c(C(F)(F)C(F)(F)F)nn1C [5-ethynyl-1-methyl-3-(pentafluoroethyl)-4-(trifluoromethyl)-1H-pyrazole] | 
2.77 | CN(C)/C=C/C(=O)c1c(C(F)(F)F)c(C(F)(F)C(F)(F)F)nn1C [(2E)-3-(dimethylamino)-1-[1-methyl-3-(pentafluoroethyl)-4-(trifluoromethyl)-1H-pyrazol-5-yl]prop-2-en-1-one] | 
4.05 | Cn1nc(C(F)(F)C(F)(F)F)c(C(F)(F)F)c1-c1ccn(-c2ccc(Cl)c(C(=O)NC3CC3)c2)n1 [Id-1, 2-chloro-N-cyclopropyl-5-[2′-methyl-5′-(pentafluoroethyl)-4′-(trifluoromethyl)-1H,2′H-3,3′-bipyrazol-1-yl]benzamide] | efficacy ([2]; application rate 100 g/ha): 100%; efficacy [3]: 100%
4.06 | Cn1nc(C(F)(F)C(F)(F)F)c(C(F)(F)F)c1-c1nnn(-c2ccc(Cl)c(C(=O)NC3CC3)c2)n1 [Ih-1, 2-chloro-N-cyclopropyl-5-{5-[1-methyl-3-(pentafluoroethyl)-4-(trifluoromethyl)-1H-pyrazol-5-yl]-2H-tetrazol-2-yl}benzamide] | efficacy ([2]; application rate 20 g/ha): 100%; efficacy [3]: 100%; efficacy [4]: 90%
3.22 | CON(C)C(=O)c1c(C(F)(F)F)c(C(F)(F)C(F)(F)F)nn1C [N-methoxy-N,1-dimethyl-3-(pentafluoroethyl)-4-(trifluoromethyl)-1H-pyrazole-5-carboxamide] | 
0.96 | O=C(NC1CC1)c1cc(B(O)O)ccc1Cl [[4-chloro-3-(cyclopropylcarbamoyl)phenyl]boronic acid] | 
